Source: ChEMBL document CHEMBL6134909 (Eur J Med Chem, 2025)

How the values were obtained:
Influenza A virus = test: Anti-viral activity against Influenza A virus H7N1 pseudotype infected in human A549 cells assessed as inhibition of viral entry incubated for 48 hrs by Neolite Reporter Gene Assay; type: functional, organism-based; details: H7N1, A549, 48 h
[1] = Cytotoxicity against human A549 cells incubated for 48 hrs by CellTiter-Glo Luminescent Cell Viability Assay; type: toxicity, cell-based
[2] = Metabolic stability in human liver microsomes assessed as compound remaining at 2 to 10 uM measured after 60 mins in presence of NADPH by LC-MS/MS analysis; type: ADME, Microsome; details: dose 2-10 µM, read-out: Stability
[3] = Metabolic stability in BALB/c mouse liver microsomes assessed as compound remaining at 2 to 10 uM measured after 60 mins in presence of NADPH by LC-MS/MS analysis; type: ADME, Microsome; details: dose 2-10 µM, read-out: Stability
[4] = Metabolic stability in human liver microsomes assessed as compound remaining at 2 to 10 uM measured after 60 mins in absence of NADPH by LC-MS/MS analysis; type: ADME, Microsome; details: dose 2-10 µM, read-out: Stability
[5] = Metabolic stability in BALB/c mouse liver microsomes assessed as compound remaining at 2 to 10 uM measured after 60 mins in absence of NADPH by LC-MS/MS analysis; type: ADME, Microsome; details: dose 2-10 µM, read-out: Stability
[6] = Metabolic stability in human plasma at 2 uM measured after 60 mins by LC-MS/MS analysis; type: ADME, cell-free; details: 1 h
[7] = Metabolic stability in mouse plasma at 2 uM measured after 60 mins by LC-MS/MS analysis; type: ADME, cell-free; details: 1 h

## Fc1ccc(-c2nc3ncccn3c2NC2CCCCC2)cc1
Influenza A virus
  EC50: 0.04 µM
[1]
  CC50 at 48 h: > 100 µM

## CCOc1ccc(-c2nc3nc(C)cc(C)n3c2NC2CCCCC2)cc1OC
Influenza A virus
  EC50: 5.33 µM
[1]
  CC50 at 48 h: > 25 µM

## Cc1cc(C)n2c(NC34CC5CC(C)(CC(C)(C5)C3)C4)c(-c3ccccc3)nc2n1
Influenza A virus
  EC50: 13 µM
[1]
  CC50 at 48 h: 32 µM

## COCOc1ccc(-c2nc3ncc(Cl)cn3c2NC2CCCCCC2)cc1
Influenza A virus
  EC50: 0.74 µM
[1]
  CC50 at 48 h: > 100 µM
[2]
  remaining at 1 h, up to 10 µM: 13.8%
[3]
  remaining at 1 h, up to 10 µM: 2.7%
[4]
  remaining at 1 h, up to 10 µM: 111%
[5]
  remaining at 1 h, up to 10 µM: 111%
[6]
  Stability: Stable
[7]
  Stability: Stable

## COCOc1ccc(-c2nc3ncccn3c2NC2CCCCCC2)cc1
Influenza A virus
  EC50: 0.16 µM
[1]
  CC50 at 48 h: 52 µM

## Fc1cccc(-c2nc3ncccn3c2NC2CCCCC2)c1
Influenza A virus
  EC50: 0.39 µM
[1]
  CC50 at 48 h: > 25 µM

## Cc1cc(C)n2c(NC3CCCCC3)c(-c3ccc(Cl)s3)nc2n1
Influenza A virus
  EC50: 2.26 µM
[1]
  CC50 at 48 h: 14.8 µM

## COc1ccc(COc2ccc(-c3nc4ncccn4c3NC3CCCCC3)c(F)c2)cc1
Influenza A virus
  EC50: 2.1 µM
[1]
  CC50 at 48 h: 39 µM

## Cc1cc(C)n2c(NC3CCCCC3)c(-c3ccncc3)nc2n1
Influenza A virus
  EC50: 0.89 µM
[1]
  CC50 at 48 h: > 25 µM

## COCOc1ccc(-c2nc3ncccn3c2NC2CCCCC2)c(F)c1
Influenza A virus
  EC50: 0.08 µM
[1]
  CC50 at 48 h: > 100 µM
[2]
  remaining at 1 h, up to 10 µM: 62.3%
[3]
  remaining at 1 h, up to 10 µM: 9.2%
[4]
  remaining at 1 h, up to 10 µM: 103%
[5]
  remaining at 1 h, up to 10 µM: 107%
[6]
  Stability: Stable
[7]
  Stability: Stable

## Fc1ccc(-c2nc3ncccn3c2NC2CCCCC2)cc1N1CCOCC1
Influenza A virus
  EC50: 0.68 µM
[1]
  CC50 at 48 h: > 25 µM

## Fc1cc(-c2nc3ncc(Cl)cn3c2NC2CCCCC2)ccc1N1CCOCC1
Influenza A virus
  EC50: 1.61 µM
[1]
  CC50 at 48 h: > 100 µM

## Fc1ccc(-c2nc3ncc(Cl)cn3c2NC2CCCC2)cc1F
Influenza A virus
  EC50: 8.3 µM
[1]
  CC50 at 48 h: 25 µM

## Cc1cc(C)n2c(NC3CCCCC3)c(-c3ccc(Cl)c(Cl)c3)nc2n1
Influenza A virus
  EC50: 2.51 µM
[1]
  CC50 at 48 h: 12 µM

## COc1cc(OC)cc(-c2nc3ncccn3c2NC2CCCCC2)c1
Influenza A virus
  EC50: 1.89 µM
[1]
  CC50 at 48 h: 47 µM

## CN1CCN(c2ccc(-c3nc4ncc(Cl)cn4c3NC3CCCCC3)cc2F)CC1
Influenza A virus
  EC50: 1.49 µM
[1]
  CC50 at 48 h: 31 µM

## Oc1ccc(-c2nc3ncc(Br)cn3c2NC2CCCCCC2)cc1
Influenza A virus
  EC50: 3.65 µM
[1]
  CC50 at 48 h: 45 µM

## COc1cc(-c2nc3nc(C)cc(C)n3c2NC2CCCCC2)ccc1F
Influenza A virus
  EC50: 2.06 µM
[1]
  CC50 at 48 h: > 25 µM

## COCOc1ccc(-c2nc3ncccn3c2NC2CCCCC2)cc1
Influenza A virus
  EC50: 0.09 µM
[1]
  CC50 at 48 h: > 100 µM
[2]
  remaining at 1 h, up to 10 µM: 63.7%
[3]
  remaining at 1 h, up to 10 µM: 2.2%
[4]
  remaining at 1 h, up to 10 µM: 105%
[5]
  remaining at 1 h, up to 10 µM: 109%
[6]
  Stability: Stable
[7]
  Stability: Stable

## COCOc1cc(F)c(-c2nc3ncc(Cl)cn3c2NC2CCCCC2)c(OC)c1
Influenza A virus
  EC50: 6.65 µM
[1]
  CC50 at 48 h: 48 µM

## Cc1cc(C)n2c(NC3CCCCC3)c(-c3nccs3)nc2n1
Influenza A virus
  EC50: 0.49 µM
[1]
  CC50 at 48 h: > 25 µM
[2]
  remaining at 1 h, up to 10 µM: 19.8%
[3]
  remaining at 1 h, up to 10 µM: 29.4%
[4]
  remaining at 1 h, up to 10 µM: 101%
[5]
  remaining at 1 h, up to 10 µM: 99.9%
[6]
  Stability: Stable
[7]
  Stability: Stable

## COCOc1ccc(-c2nc3ncc(Br)cn3c2NC2CCCCCC2)cc1
Influenza A virus
  EC50: 1.31 µM
[1]
  CC50 at 48 h: > 100 µM

## Cc1cc(C)n2c(NC3CCCCC3)c(-c3ccccc3)nc2n1
Influenza A virus
  EC50: 2.55 µM
[1]
  CC50 at 48 h: 59 µM

## COc1ccc(-c2nc3sccn3c2NC2CCCCC2)cc1
Influenza A virus
  EC50: 3.02 µM
[1]
  CC50 at 48 h: 63.1 µM

## Clc1cnc2nc(-c3ccccc3)c(NC3CCCCC3)n2c1
Influenza A virus
  EC50: 13 µM
[1]
  CC50 at 48 h: > 100 µM

## Fc1ccc(-c2nc3ncccn3c2NC2CCCCC2)c(F)c1
Influenza A virus
  EC50: 0.09 µM
[1]
  CC50 at 48 h: 72 µM
[2]
  remaining at 1 h, up to 10 µM: 33.4%
[3]
  remaining at 1 h, up to 10 µM: 22.8%
[4]
  remaining at 1 h, up to 10 µM: 104%
[5]
  remaining at 1 h, up to 10 µM: 108%
[6]
  Stability: Stable
[7]
  Stability: Stable

## Oc1ccc(-c2nc3ncc(Cl)cn3c2NC2CCCCCC2)cc1
Influenza A virus
  EC50: 1.09 µM
[1]
  CC50 at 48 h: 50 µM

## CN1CCOc2cc(-c3nc4ncc(Cl)cn4c3NC3CCCCC3)ccc21
Influenza A virus
  EC50: 2.05 µM
[1]
  CC50 at 48 h: > 100 µM

## Cc1cc(C)n2c(NC3CCCCC3)c(-c3cccc4c3OC(F)(F)O4)nc2n1
Influenza A virus
  EC50: 6.27 µM
[1]
  CC50 at 48 h: > 25 µM

## Cc1cc(C)n2c(NC3CCCCC3)c(-c3ccc(F)c(N4CCOCC4)c3)nc2n1
Influenza A virus
  EC50: 4.57 µM
[1]
  CC50 at 48 h: > 25 µM

## Cc1cc(C)n2c(NC3CCCCC3)c(-c3ccnc(Cl)c3)nc2n1
Influenza A virus
  EC50: 0.27 µM
[1]
  CC50 at 48 h: > 25 µM
[2]
  remaining at 1 h, up to 10 µM: 0.5%
[3]
  remaining at 1 h, up to 10 µM: 6.8%
[4]
  remaining at 1 h, up to 10 µM: 114%
[5]
  remaining at 1 h, up to 10 µM: 105%
[6]
  Stability: Stable
[7]
  Stability: Stable

## Fc1ccc(-c2nc3ncc(Cl)cn3c2NC2CCCCC2)cc1F
Influenza A virus
  EC50: 0.26 µM
[1]
  CC50 at 48 h: > 100 µM
[6]
  Stability: Stable
[7]
  Stability: Stable

## Fc1ccc(-c2nc3ncc(Cl)cn3c2NC2CCCCCC2)cc1F
Influenza A virus
  EC50: 0.12 µM
[1]
  CC50 at 48 h: > 100 µM
[2]
  remaining at 1 h, up to 10 µM: 2.1%
[3]
  remaining at 1 h, up to 10 µM: 6.3%
[4]
  remaining at 1 h, up to 10 µM: 97%
[5]
  remaining at 1 h, up to 10 µM: 101%
[6]
  Stability: Stable
[7]
  Stability: Stable

## CC(C)Oc1ccc(-c2nc3ncccn3c2NC2CCCCC2)cc1
Influenza A virus
  EC50: 1.45 µM
[1]
  CC50 at 48 h: > 100 µM

## Fc1cc(N2CCOCC2)ccc1-c1nc2ncc(Cl)cn2c1NC1CCCCC1
Influenza A virus
  EC50: 2.49 µM
[1]
  CC50 at 48 h: 54 µM

## Cc1ccc(Cl)c(-c2nc3ncccn3c2NC2CCCCC2)c1F
Influenza A virus
  EC50: 1.26 µM
[1]
  CC50 at 48 h: 27 µM

## Cc1cc(C)n2c(NC3CCCCC3)c(-c3ccc(F)c(F)c3)nc2n1
Influenza A virus
  EC50: 1.3 µM
[1]
  CC50 at 48 h: > 25 µM

## CC12CC3CC(C)(C1)CC(Nc1c(-c4ccc(F)c(F)c4)nc4ncccn14)(C3)C2
Influenza A virus
  EC50: 9.18 µM
[1]
  CC50 at 48 h: 15.5 µM

## COCCOCOc1ccc(-c2nc3ncc(Cl)cn3c2NC2CCCCC2)cc1
Influenza A virus
  EC50: 0.86 µM
[1]
  CC50 at 48 h: > 100 µM

## CCN(c1c(-c2ccc(F)c(F)c2)nc2ncccn12)C1CCCCC1
Influenza A virus
  EC50: 12.8 µM
[1]
  CC50 at 48 h: > 100 µM
[2]
  remaining at 1 h, up to 10 µM: 1%
[3]
  remaining at 1 h, up to 10 µM: 0%
[4]
  remaining at 1 h, up to 10 µM: 110%
[5]
  remaining at 1 h, up to 10 µM: 103%

## c1ccc(-c2nc3ncccn3c2NC2CCCC2)cc1
Influenza A virus
  EC50: 0.35 µM
[1]
  CC50 at 48 h: > 100 µM

## Cc1cc(C)n2c(NC3CCCCC3)c(-c3cc(Br)ncc3F)nc2n1
Influenza A virus
  EC50: 3.28 µM
[1]
  CC50 at 48 h: > 25 µM

## Fc1cc(-c2nc3ncc(Cl)cn3c2NC2CCCCC2)ccc1N1CCCC1
Influenza A virus
  EC50: 12.5 µM
[1]
  CC50 at 48 h: > 100 µM

## COCOc1ccc(-c2nc3ncc(Cl)cn3c2NC2CCCCC2)c(F)c1
Influenza A virus
  EC50: 3.04 µM
[1]
  CC50 at 48 h: 50 µM
[2]
  remaining at 1 h, up to 10 µM: 2.6%
[3]
  remaining at 1 h, up to 10 µM: 14.2%
[4]
  remaining at 1 h, up to 10 µM: 106%
[5]
  remaining at 1 h, up to 10 µM: 102%

## CN1CCN(c2ccc(-c3nc4ncc(Cl)cn4c3NC3CCCCC3)c(F)c2)CC1
Influenza A virus
  EC50: 1.26 µM
[1]
  CC50 at 48 h: 46 µM

## COCOc1cccc(-c2nc3ncc(Cl)cn3c2NC2CCCCC2)c1F
Influenza A virus
  EC50: 3.04 µM
[1]
  CC50 at 48 h: 51 µM
